Experimental data published in US20260091136A1, “USING ENHO GENE THERAPY TO TREAT CARDIOMETABOLIC DISEASE” (University of Pittsburgh-of the Commonwealth System of …, priority 2023, published 2026).
Entries after “also recorded” stand apart in the source; their conditions may differ.

Assays:
[1] = system: HFpEF mice; test: Liver H&E histology, NAFLD/MAFLD activity score (NAS), cohort 2; format: in vivo, C57BL/6J mice; conditions: adropin-treated vs HFpEF mice; non-significant
Source text: (§1) Animal Care and Use. Male C57BL/6J 8-week-old mice were obtained from the Jackson Laboratory and maintained on chow for 4 weeks to acclimate to their new environment. Animals were housed in the University of Pittsburgh animal facility under standard conditions with ad libitum access to water and food and maintained on a constant 12-hour light/dark cycle. At 12 weeks of age, the mice were exposed to normal chow (Chow; 60% carbohydrate, 26% protein, 14% fat), or a combination of high-fat diet (HFD; 20% carbohydrate, 20% protein, 60% fat) plus No-nitro-L-arginine methyl ester (L-NAME: 0.5 g/L) supplemented in their drinking water after adjusting the pH to 7.4 with 1N NaOH to induce HFpEF [10]. For cohort 1, the mice were subject to the HFpEF diet for 15 weeks. For cohort 2, after 8 weeks of diet, mice were randomly assigned to a control or treatment group receiving daily intraperitoneal injections of either vehicle or recombinant adropin at 450 nmol/kg animal weight prepared in PBS with 0.1% BSA for the remaining 5 weeks of the study. L-NAME supplemented drinking water was changed weekly and adropin was made fresh and sterile filtered before each use.
Histology. […] Histology sections were visualized with the Evos FL Auto 2 Microscope, observed changes in structure were quantified using ImageJ software and representative images are shown.

[2] = system: hearts from control HFpEF and Adropin treated HFpEF mice; test: Bulk RNA sequencing of hearts, HFpEF vs HFpEF+Adropin; format: in vivo, C57BL/6J mice; conditions: heart bulk RNA-seq
Source text: as §1
Transcriptomics. Total RNA was isolated from myocardial LV and hepatic tissue using the RNeasy Plus Mini Kit. Approximately 2 μg RNA was used for bulk RNA sequencing performed by Azenta/GENEWIZ based on company recommendations to identify differential gene expression patterns between the experimental groups.

[3] = system: hexosamine biosynthesis pathway (HBP); test: Immunoblotting of cardiac proteins (O-GlcNAc, GFAT, OGT, OGA, CD36, PDK4, PLIN5); format: in vivo, C57BL/6J mice; conditions: heart; for CD36 abundance: to levels observed in chow mice; for total cardiac protein O-GlcNAcylation: to levels observed in chow mice (P=0.06 in b192)
Source text: as §1
Protein Isolation and Immunoblotting. Heart tissues were rapidly harvested following euthanasia, weighed, RV discarded and LV flash-frozen in liquid nitrogen. For protein isolation, tissues were minced and lysed in CHAPS buffer (1% CHAPS, 150 mM NaCl, 10 mM HEPES, pH 7.4) using a VWR 4-Place Mini Bead Mill, then incubated on ice for ˜2.5 h. Homogenates were spun at 10,000 g at 4° C. for 10 min, and the supernatants collected for immunoblotting. For immunoblotting, protein lysates were quantitated using a BioDrop LITE Analyzer, prepared in LDS sample buffer, separated using Bolt SDS-PAGE 4-12% or 12% Bis-Tris Plus gels, and transferred to nitrocellulose membranes. Membranes were blocked using SuperBlock (PBS) Blocking Buffer and incubated overnight in the following primary antibodies: rabbit PDK4 (PA5-13776); mouse 0-GlcNAc (9875), rabbit GFAT (D12F4), rabbit OGT (D1D8Q), rabbit OGA (E9C5U), rabbit GAPDH (2118S); rabbit CD36 (18836-1-AP), rabbit CPT1b (22170-1-AP), rabbit LCAD (17526-1-AP), and GCN5L1 as previously reported (Scott et al., 2012). Protein loading was confirmed using GAPDH as a loading control. Fluorescent […] or anti-rabbit secondary antibodies (red, 700 nm; green, 800 nm) were used to detect expression levels. Images were obtained using Licor Odyssey CLx System and protein densitometry was measured using the LiCor Image Studio Lite Ver. 5.2 Software.

[4] = system: LCAD; test: O-GlcNAc co-immunoprecipitation from heart: LCAD; format: in vivo, C57BL/6J mice; conditions: Adropin-treated HFpEF mice, relative to levels in chow mice / HFpEF
Source text: as §1
Co-Immunoprecipitation. […] Images were obtained using LiCor Odyssey CLx System and protein densitometry was measured using the LiCor Image Studio Lite Ver. […]

[5] = system: diabetic mice; conditions: cited from earlier work
[6] = system: GPR19; conditions: previous work from our group; cited from earlier work
[7] = Adropin-treated HFpEF mice, listed as adropin

## Adropin: recombinant Adropin peptide hormone encoded by the ENHO gene; full-length (SEQ ID NO: 1) or cleaved product of amino acids 34-76 (SEQ ID NO: 2) (CHSRSADVDSLSESSPNSSPGPCPEKAPPPQKPSHEGSYLLQP)
[1]
  decrease in liver NAS: ~7%
[2]; Adropin-treated vs HFpEF mice
  expression of extracellular matrix remodeling/fibrosis (e.g. Comp, Col12a1) and natriuretic peptide (e.g. Nppa) genes: decreased expression; also recorded: downregulated
[2]; adropin-treated vs vehicle-treated HFpEF mice
  decrease in extracellular matrix remodeling transcripts (Col1a1, Col3a1, Col5a1, Mmp2): > 2 fold
[2]; between HFpEF and Adropin groups
  metabolic genes: no widespread changes
[3]
  PDK4 enzyme expression: no observed changes
  inhibition of cardiac protein O-GlcNAcylation by mediating expression of OGT and OGA: did not inhibit
[3]; Adropin-treated HFpEF mice
  GFAT expression: did not reduce
  CD36 abundance: restored
  total cardiac protein O-GlcNAcylation: restored; also recorded: decrease
[3]; [7]
  total cardiac protein O-GlcNAcylation: restored
  CD36 abundance: restored; also recorded: significantly attenuated
[3]; increased in HFpEF vs chow
  PLIN5 expression (aberrant fatty acid utilization): corrected
[4]
  LCAD O-GlcNAcylation: restored; also recorded: reduced
[5]; diet-induced obesity, previous study [9]
  vascular stiffness: reduced
[5]; exogenous adropin treatment, recent studies [34]
  hepatocellular injury in NAFLD/MAFLD: alleviates
[5]; previous studies [6-8]
  physical activity: improved
[5]; previous studies [7, 34]
  hepatic steatosis and injury: attenuated
[5]; previous work from our group
  glucose oxidation in the hearts of diabetic mice: restores
  liver glucose production in diabetic mice: decreases
[6]
  Adropin function in cardiac cells: dependent on GPR19
